Consider one compound from patent publication US20170014375A1, “PHARMACEUTICAL COMPOSITION COMPRISING EFFECTIVE DOSE OF POMIFERIN FOR TREATING CANCERS” (Macau University of Science and Technology, priority 2015, published 2017).

Assay [1] relates to caspase WT, 3KO, 7KO, 3/7 DKO, 8KO, Bax-Bak WT and Bax-Bak DKO MEFs. The assay is described as follows: Endogenous autophagic LC3 puncta in apoptosis-resistant MEFs. Type of assay: cell-based, mouse. As to conditions: wild-type and apoptosis-resistant MEFs; FIG. 7. The method, then:
Endogenous LC3 puncta formation is quantified as previously described^2. In brief, caspase wild-type (caspase WT), caspase-3 deficient (caspase 3KO), caspase-7 deficient (caspase 7KO), caspase-3/-7 deficient (caspase 3/7 DKO), caspase-8 deficient (caspase 8KO), Bax-Bak wild-type (Bak-Bak WT) and Bax-Bak double knock out (Bak-Bak DKO) MEFs are grown on coverslips in a 6-well plate are treated with […] of pomiferin. Both wild-type and deficient MEFs are then fixed in 4% paraformaldehyde for 20 minutes at room temperature and then rinsed with PBS. After washing with PBS, the cells are then incubated with anti-LC3 (1:200) in TBST (100 mM Tris HCl, pH 7.5, 150 mM NaCl, 0.05% Tween 20 and 5% BSA) overnight at 4. After washing with PBS, the cells are incubated with anti-mouse secondary antibody (TRITC) 1:200 in TBST containing 5% BSA at 37 for 1 hrs in the dark. The coverslips are then mounted with FluorSave™ mounting media (Calbiochem, San Diego, Calif., USA) for fluorescence imaging and localization of LC3 autophagosomes are captured under the API Delta Vision Live-cell Imaging System (Applied Precision Inc., GE Healthcare Company, Washington, USA).

In assay [2] the test system is Hep3B (human liver cancer) cells. The assay is described as follows: MTT cytotoxicity assay, Hep3B. As to conditions: 72 h, Hep 3B (Liver), 3 days, read-out: Means of IC50. The class given is cell-based. The procedure:
(§1) Pomiferin is dissolved in DMSO at a final concentration of 100 mmol/L and stored at −20° C. Cytotoxicity is assessed using the 3-(4,5-dimethylthiazol-2-yl)-2,5-diphenyltetrazolium bromide assay. 4000-8000 HeLa (human cervical cancer), MCF-7 (human breast cancer), HepG2 and Hep3B (human liver cancer), H1299 and A549 (human lung cancer), LNCap (human prostate cancer) and LLC-1 (mouse Lewis lung carcinoma) cells are seeded on 96-well plates per well. After overnight pre-incubation, the cells are exposed to different concentrations of pomiferin ([…]) for 3 days. Subsequently, 10 μL of MTT reagents is added to each well and incubated at 37° C. for 4 hours followed by the addition of 100 μL solubilization buffer (10% SDS in 0.01 mol/L HCl) and overnight incubation. Absorbance at 585 nm is determined from each well the next day. The percentage of cell viability is calculated using the following formula: Cell viability (%)=Cells number treated/Cells number DMSO control×100. Data are obtained from three independent experiments.
(Formazan colour is commonly taken as a measure of viable cells.)

Assay [3] concerns AMPK-mTOR signaling in HeLa cancer cells. Description: Western blot of mTOR signaling marker proteins (P-AMPK, P-p70S6K). Type of assay: cell-based, human. To be noted: FIG. 3A. The method, then:
HeLa cancer cells treated with indicated time and concentrations of pomiferin are harvested and lysed in RIPA buffer (Cell Signaling). The cell lysates are then resolved by SDS-PAGE. After electrophoresis, the proteins from SDS-PAGE are transferred to nitrocellulose membrane which is then blocked with 5% non-fat dried milk for 60 minutes. The membrane is then incubated with P-p70S6K, p70S6K, P-AMPK, AMPK and actin primary antibodies (1:1000) in TBST overnight at 4° C. respectively. After that, the membrane is further incubated with HRP-conjugated secondary antibodies for 60 minutes. Finally, protein bands are visualized by using the ECL Western Blotting Detection Reagents (Invitrogen).
Background: Immunoblotting shows a protein as a band on a membrane.

Assay [4] has as its system LLC-1 (mouse Lewis lung carcinoma) cells. The assay is described as follows: MTT cytotoxicity assay, LLC-1. The class given is cell-based. As to conditions: LLC1, 72 h, LLC-1 (Lung), 3 days, read-out: Means of IC50. The method, then:
as §1

The test system of assay [5] is Bax-Bak wild-type mouse embryonic fibroblasts. Description: MTT cytotoxicity assay, Bax-Bak WT MEFs. The class given is cell-based. As to conditions: Fibroblast, 72 h, 3 days, read-out: Means of IC50. The procedure: (§2) The test compound of pomiferin is dissolved in DMSO at a final concentration of 100 mmol/L and stored at −20° C. Cytotoxicity is assessed using the 3-(4,5-dimethylthiazol-2-yl)-2,5-diphenyltetrazolium bromide assay as previously described^29. 2500 of caspase wild-type (caspase WT), caspase-3 deficient (caspase 3KO), caspase-7 deficient (caspase 7KO), caspase-3/-7 deficient (caspase 3/7 DKO), caspase-8 deficient (caspase 8KO), Bax-Bak wild-type (Bak-Bak WT) and Bax-Bak double knock out (Bak-Bak DKO) mouse embryonic fibroblasts (MEFs) are seeded on 96-well plates per well. After overnight pre-incubation, the cells are exposed to different concentrations of pomiferin (namely 100, 50, 25, 12.5, 6.25, 3.125, 1.5625, 0.78, 0.39, 0.195, 0.079, 0.039 μmol/L) for 3 days. Subsequently, 10 μL of MTT reagents is added to each well and incubated at 37° C. for 4 hours, followed by the addition of 100 μL solubilization buffer (10% SDS in 0.01 mol/L HCl) and overnight incubation. Absorbance at 585 nm is determined from each well on the following day. The percentage of cell viability is calculated using the following formula: Cell viability (%)=Cells numbertreated/Cells numberDMSO control×100. Data is obtained from three independent experiments.

In assay [6] the test system is caspase-8 deficient (caspase 8KO) mouse embryonic fibroblasts. Description: MTT cytotoxicity assay, caspase 8KO MEFs. Type of assay: cell-based. As to conditions: Fibroblast, 72 h, 3 days, read-out: Means of IC50. The procedure: as §2
In assay [7] the test system is caspase-7 deficient (caspase 7KO) mouse embryonic fibroblasts. The assay is described as follows: MTT cytotoxicity assay, caspase 7KO MEFs. The class given is cell-based. As to conditions: Fibroblast, 72 h, 3 days, read-out: Means of IC50. The procedure: as §2
The test system of assay [8] is caspase wild-type (caspase WT) mouse embryonic fibroblasts. Description: MTT cytotoxicity assay, caspase WT MEFs. The class given is cell-based. To be noted: Fibroblast, 72 h, 3 days, read-out: Means of IC50. The method, then: as §2

Regarding `CC(C)=CCc1c2c(c3occ(-c4ccc(O)c(O)c4)c(=O)c3c1O)C=CC(C)(C)O2` [pomiferin], in assay [1], the “autophagy induction (endogenous LC3 puncta)” value is “able to induce autophagy in all these wild-type and apoptosis-resistant cells”. Also, the IC50 in assay [2] turned out to be 16.3 µM; in assay [4], 3.82 µM; in assay [5] it was 440 nM; in assay [6], 4.98 µM; in assay [7] it was 3.95 µM; in assay [8], 7.63 µM. Moreover, the “p70S6K phosphorylation (mTOR downstream)” value in assay [3] was “concomitant reduction”. Further, the “phosphorylation of AMPK” value in assay [3] is “activate the phosphorylation of AMPK in a time dependent manner”.

One may read the IC50 as the point on the concentration scale where inhibition reaches its midpoint.
